In publication PMC8036666, “Biological and Physico-Chemical Characteristics of Arginine-Rich Peptide Gemini Surfactants with Lysine and Cystine Spacers” (International Journal of Molecular Sciences, 2021):
≈ marks a conversion by molar mass, not a printed value. Read-outs that look alike come from different tables or passages of the source. Where a SMILES comes first, the peptide text is derived from it. Bridges are numbered along the chain shown (N, C = ends). Roman numbers before positions name the chains, in order. Side-chain parts run from the residue outwards. [ ]: non-standard residue; d: D form. The star is where a group is joined. Lauroyl = CCCCCCCCCCCC(=O)*; Decanoyl = CCCCCCCCCC(=O)*; Nle = CCCC[C@H](N)C(=O)O; Octanoyl = CCCCCCCC(=O)*

Assays:
[1] = Lipopeptide hydrophobicity by RP-HPLC (adjusted retention time); format: physicochemical; conditions: for Adjusted Retention Time: RP-HPLC, 20–65% acetonitrile over 30 min, indicator of hydrophobicity; for Difference in retention time calculated as tR’C—tR’B: between corresponding surfactants of series C and B
Experimental: The identity of the purified peptides was confirmed with electrospray ionization mass spectrometry (ESI-MS) in positive ion mode. Results of MS analyses and net charge are attached in Supplementary Materials (Table S1). Peptides’ hydrophobicity was evaluated by analytical reversed-phase high-performance liquid chromatography (RP-HPLC). The critical aggregation concentrations (CACs) of the lipopeptides were determined in unbuffered aqueous solution at 298 K by measuring the surface tension as a function of lipopeptide concentration. The measurements were carried out by the Du Noüy ring method on a K100 tensiometer. The surface tension data were plotted against the logarithm of lipopeptide concentration. CAC was found as the intersection of two lines being linear regression of data below and above CAC.
Lipopeptide hydrophobicity was determined as described previously. To do this, a Waters Alliance e2695 system with a Waters 2998 PDA Detector (software-Empower 3, Waters, Milford, MA, USA) was used. All analyses were carried out on a Waters X-Bridge Shield RP-18 column (3.0 × 100 mm, 3.5 μm particle size, 130 Å pore size). The Shield Technology column with embedded polar groups was used to minimize interactions of unreacted silanol groups with basic lipopeptides. The peptides were dissolved in water (0.1% TFA, v/v) up to a concentration of 1 mg/mL. UV detection at 214 nm was used, and samples (10 μL) were eluted with a linear 20–65% acetonitrile gradient in deionized water over 30 min at 25.0 ± 0.1 °C. The mobile phase flow rate was 0.5 mL/min. Both eluents contained 0.1% (v/v) of TFA. Each peptide sample was analyzed in triplicate. The maximum standard deviation and coefficient of variation were 0.044 and 0.85%, respectively.

[2] = tested on: Staphylococcus aureus ATCC 33591
Experimental: The Acinetobacter baumannii ATCC BAA-1605, Enterococcus faecium ATCC 700221, Escherichia coli ML-35 ATCC 43827, Klebsiella aerogenes ATCC 13048, Klebsiella pneumoniae ATCC 700603, Pseudomonas aeruginosa ATCC 9027, Staphylococcus aureus ATCC 25923, Staphylococcus aureus ATCC 33591, Candida albicans ATCC 10231, Candida glabrata ATCC 15126, strains were acquired from the American Type Culture Collection (ATCC). All the strains were stored at −80 °C in Roti-Store cryo vials and before the tests were transferred into fresh Mueller–Hinton broth (MHB, Biocorp, Warsaw, […], Steinheim, Germany) for fungi and incubated for 24 h at 37 °C. Then, the cultures were seeded on the Mueller–Hinton agar (BioMaxima, Lublin, Poland) or Sabouraud dextrose agar (SDA, BioMaxima, Lublin, Poland) plates, respectively, and incubated as just mentioned. These agar cultures were used for further microbiological assays. […]
The MICs were determined by the broth microdilution method according to the Clinical and Laboratory Standard Institute guidelines. […] The experiments were conducted on 96-well microtiter polystyrene plates (Kartell, Noviglio, Italy). The growth was assessed visually after incubation, and the MIC was assumed as the lowest peptide concentration at which a noticeable growth of microorganisms was inhibited. All experiments were conducted in triplicate.

[3] = tested on: Acinetobacter baumannii ATCC BAA 1605; format: cell-based; conditions: ATCC BAA 1605, 24 h
Experimental: (§1) Biofilm is associated with life-threating infections due to its outstanding resistance to antibiotics. In this study, the antibiofilm characteristics of USCLs and gemini surfactants were evaluated.
(§2) The MBECs were determined as described previously using 96-well polystyrene flat-bottom plates. For this purpose, 24 h cultures of microorganisms were diluted to obtain a final density of 5.0 × 10^5 CFU/mL and 2.0 × 10^5 CFU/mL of bacteria and fungi, respectively. Microorganisms were diluted in MHB or RPMI-1640 with 2% D-glucose (bacteria and fungi, respectively). Briefly, 100 µL of cell suspension was added into the test plates. After 24 h of incubation at 37 °C, the wells were rinsed three times with a PBS (pH 7.4) to remove non-adherent cells. Subsequently, 100 μL of the test compounds in a concentration range (1–512 μg/mL) were added to each well. After 24 h of incubation at 37 °C, 20 μL of a cell viability reagent was added (resazurin, 4 g/L; Sigma Aldrich, St. Louis, MO, USA). The MBEC was read after 1 h. The determined values were recorded as the lowest concentration at which the reduction of resazurin (from blue to pink) was lower or equal to 10 ± 0.5% as compared to the positive (100%) and negative (0%) controls. The reduction was monitored by measuring absorbance at 570 nm (reduced) and 600 nm (oxidized) using a microplate spectrophotometer (Multiskan GO Microplate Spectrophotometer, Thermo Fisher Scientific, Vantaa, Finland). All experiments were conducted in triplicate.

[4] = tested on: Candida albicans ATCC 10231; format: cell-based; conditions: ATCC 10231, 24 h
Experimental: as §1, §2

[5] = tested on: Candida glabrata ATCC 15126; format: cell-based; conditions: ATCC 15126, 24 h
Experimental: as §1, §2

[6] = tested on: Enterococcus faecium ATCC 700221; format: cell-based; conditions: ATCC 700221, 24 h
Experimental: as §1, §2

[7] = tested on: Klebsiella aerogenes ATCC 13048; format: cell-based; conditions: ATCC 13048, 24 h
Experimental: as §1, §2

[8] = tested on: Klebsiella pneumoniae ATCC 700603; format: cell-based; conditions: ATCC 700603, 24 h
Experimental: as §1, §2

[9] = tested on: Pseudomonas aeruginosa ATCC 9027; format: cell-based; conditions: ATCC 9027, 24 h
Experimental: as §1, §2

[10] = tested on: Staphylococcus aureus ATCC 25923; format: cell-based; conditions: ATCC 25923, 24 h
Experimental: as §1, §2

[11] = tested on: Staphylococcus aureus ATCC 33591; format: cell-based; conditions: ATCC 33591, 24 h
Experimental: as §1, §2

Row | SMILES | Adjusted Retention Time [1] [min] | Difference in retention time calculated as tR’C—tR’B [1] [min] | MIC Staphylococcus aureus ATCC 33591 ([2]; ATCC 33591, 24 h) [µg/mL] | MBEC Acinetobacter baumannii ATCC BAA 1605 [3] [µg/mL] | MBEC Candida albicans ATCC 10231 [4] [µg/mL] | MBEC Candida glabrata ATCC 15126 [5] [µg/mL] | MBEC Enterococcus faecium ATCC 700221 [6] [µg/mL] | MBEC Klebsiella aerogenes ATCC 13048 [7] [µg/mL] | MBEC Klebsiella pneumoniae ATCC 700603 [8] [µg/mL] | MBEC Pseudomonas aeruginosa ATCC 9027 [9] [µg/mL] | MBEC Staphylococcus aureus ATCC 25923 [10] [µg/mL] | MBEC Staphylococcus aureus ATCC 33591 [11] [µg/mL] | MIC Staphylococcus aureus ATCC 33591 ([2]; planktonic culture)
1 | CCCCCCCCCC(=O)N[C@@H](CCCNC(=N)N)C(=O)N[C@@H](CCCNC(=N)N)C(=O)N[C@@H](CSSC[C@H](NC(=O)[C@H](CCCNC(=N)N)NC(=O)[C@H](CCCNC(=N)N)NC(=O)CCCCCCCCC)C(N)=O)C(N)=O [Compound C2] (I: Decanoyl-Arg-Arg-Cys-NH2 / II: Decanoyl-Arg-Arg-Cys-NH2; disulfide I:3-II:3) | 13.94 | 0.21 | 1 (≈ 0.854 µM) | 256 | 32 | 512 | 4 | 256 | 512 | 512 | 32 | 8 | –
2 | CCCCCCCCCCCC(=O)N[C@@H](CCCNC(=N)N)C(=O)N[C@@H](CCCNC(=N)N)C(N)=O [Compound A3, C12-RR-NH2] (Lauroyl-Arg-Arg-NH2) | 12.15 | – | 32 (≈ 62.5 µM) | 512 | 128 | 512 | 32 | 512 | 512 | 512 | 64 | 64 | –
3 | CCCCCCCC(=O)N[C@@H](CCCNC(=N)N)C(=O)N[C@@H](CCCNC(=N)N)C(=O)N[C@@H](CSSC[C@H](NC(=O)[C@H](CCCNC(=N)N)NC(=O)[C@H](CCCNC(=N)N)NC(=O)CCCCCCC)C(N)=O)C(N)=O [Compound C1] (I: Octanoyl-Arg-Arg-Cys-NH2 / II: Octanoyl-Arg-Arg-Cys-NH2; disulfide I:3-II:3) | 8.26 | 0.15 | 16 (≈ 14.3 µM) | 512 | 256 | >512 | 64 | >512 | >512 | 512 | 64 | 32 | –
4 | CCCCCCCCCC(=O)N[C@@H](CCCNC(=N)N)C(=O)N[C@@H](CCCNC(=N)N)C(N)=O [Compound A2, C10-RR-NH2] (Decanoyl-Arg-Arg-NH2) | 7.74 | – | – | >512 | 512 | >512 | 512 | >512 | >512 | >512 | 512 | 512 | 256 (−/−) µg/mL
5 | CCCCCCCC(=O)N[C@@H](CCCC)C(=O)N[C@@H](CCCNC(=N)N)C(=O)N[C@@H](CCCNC(=N)N)C(=O)NCCCC[C@H](NC(=O)[C@H](CCCNC(=N)N)NC(=O)[C@H](CCCNC(=N)N)NC(=O)[C@H](CCCC)NC(=O)CCCCCCC)C(N)=O [Compound B6] (Octanoyl-[Nle]RRK([Arg-Arg-Nle-Octanoyl])-NH2) | 13.96 | – | 4 (≈ 3.2 µM) | 256 | 256 | 512 | 8 | 256 | 256 | 256 | 16 | 4 | –
6 | CCCCCCCC(=O)N[C@@H](CCCNC(=N)N)C(=O)N[C@@H](CCCNC(=N)N)C(=O)NCCCC[C@H](NC(=O)[C@H](CCCNC(=N)N)NC(=O)[C@H](CCCNC(=N)N)NC(=O)CCCCCCC)C(N)=O [Compound B1] (Octanoyl-Arg-Arg-Lys([Arg-Arg-Octanoyl])-NH2) | 8.11 | – | 8 (≈ 7.83 µM) | 512 | 256 | >512 | 128 | >512 | >512 | 512 | 32 | 32 | –
